In ChEMBL document CHEMBL1134843, “Tyrosine kinase inhibitors. 18. 6-Substituted 4-anilinoquinazolines and 4-anilinopyrido[3,4-d]pyrimidines as soluble, irreversible inhibitors of the epidermal growth factor receptor” (J Med Chem, 2001):
Values belong to the molecule of their own block, whether it stands above or below them.

Experiments:
[1] = molecular target: Receptor tyrosine-protein kinase erbB-2 (Homo sapiens, UniProt P04626); assay: Inhibition of heregulin-stimulated autophosphorylation of erbB2 in MDA-MB 453 cells; type: cell-based
A-431 [2] = assay: In vivo activity in A431 tumor bearing mice, maximum dose (schedule 12-26 days); type: functional
A-431 [3] = assay: In vivo activity in A431 tumor bearing mice, relative time required for treated and control tumors to reach 750 mg (schedule 12-26 days); type: functional
A-431 [4] = assay: In vivo activity in A431 tumor bearing mice, ratio of treated and control tumor mass day 26; type: functional
A-431 [5] = assay: In vivo activity in A431 tumor bearing mice, maximum weight loss days 12-26; type: functional
NCI-H125 [6] = assay: In vivo activity in H125 tumor bearing mice, maximum dose (schedule 15-29 days); type: functional, Mus musculus
NCI-H125 [7] = assay: In vivo activity in H125 tumor bearing mice, relative time required for treated and control tumors to reach 750 mg (schedule 15-29 days); type: functional, Mus musculus
NCI-H125 [8] = assay: In vivo activity in H125 tumor bearing mice, ratio of treated and control tumor mass day 29; type: functional, Mus musculus
NCI-H125 [9] = assay: In vivo activity in H125 tumor bearing mice, maximum weight loss days 15-29; type: functional, Mus musculus
MCF7 [10] = assay: In vivo activity in MCF-7 tumor bearing mice, maximum dose (schedule 17-31 days); type: functional
MCF7 [11] = assay: In vivo activity in MCF-7 tumor bearing mice, ratio of treated and control tumor mass day 31; type: functional
MCF7 [12] = assay: In vivo activity in MCF-7 tumor bearing mice, relative time required for treated and control tumors to reach 750 mg (schedule 17-31 days); type: functional
[13] = molecular target: Epidermal growth factor receptor (Homo sapiens, UniProt P00533)
Description: Inhibition of phosphorylation of a polyglutamic acid/tyrosine random copolymer by EGFR enzyme (from human A431 carcinoma cell vesicles)

A-431 [14] = assay: In vivo activity in A431 tumor bearing mice, maximum dose (schedule 10-24 days); type: functional
MCF7 [15] = assay: In vivo activity in MCF-7 tumor bearing mice, maximum dose (schedule 11-25 days); type: functional
MCF7 [16] = assay: In vivo activity in MCF-7 tumor bearing mice, maximum weight loss days 11-25; type: functional
MCF7 [17] = assay: In vivo activity in MCF-7 tumor bearing mice, ratio of treated and control tumor mass day 25; type: functional
MCF7 [18] = assay: In vivo activity in MCF-7 tumor bearing mice, relative time required for treated and control tumors to reach 750 mg (schedule 11-25 days); type: functional

Receptor tyrosine-protein kinase erbB-2, sequence (P04626 whole entry): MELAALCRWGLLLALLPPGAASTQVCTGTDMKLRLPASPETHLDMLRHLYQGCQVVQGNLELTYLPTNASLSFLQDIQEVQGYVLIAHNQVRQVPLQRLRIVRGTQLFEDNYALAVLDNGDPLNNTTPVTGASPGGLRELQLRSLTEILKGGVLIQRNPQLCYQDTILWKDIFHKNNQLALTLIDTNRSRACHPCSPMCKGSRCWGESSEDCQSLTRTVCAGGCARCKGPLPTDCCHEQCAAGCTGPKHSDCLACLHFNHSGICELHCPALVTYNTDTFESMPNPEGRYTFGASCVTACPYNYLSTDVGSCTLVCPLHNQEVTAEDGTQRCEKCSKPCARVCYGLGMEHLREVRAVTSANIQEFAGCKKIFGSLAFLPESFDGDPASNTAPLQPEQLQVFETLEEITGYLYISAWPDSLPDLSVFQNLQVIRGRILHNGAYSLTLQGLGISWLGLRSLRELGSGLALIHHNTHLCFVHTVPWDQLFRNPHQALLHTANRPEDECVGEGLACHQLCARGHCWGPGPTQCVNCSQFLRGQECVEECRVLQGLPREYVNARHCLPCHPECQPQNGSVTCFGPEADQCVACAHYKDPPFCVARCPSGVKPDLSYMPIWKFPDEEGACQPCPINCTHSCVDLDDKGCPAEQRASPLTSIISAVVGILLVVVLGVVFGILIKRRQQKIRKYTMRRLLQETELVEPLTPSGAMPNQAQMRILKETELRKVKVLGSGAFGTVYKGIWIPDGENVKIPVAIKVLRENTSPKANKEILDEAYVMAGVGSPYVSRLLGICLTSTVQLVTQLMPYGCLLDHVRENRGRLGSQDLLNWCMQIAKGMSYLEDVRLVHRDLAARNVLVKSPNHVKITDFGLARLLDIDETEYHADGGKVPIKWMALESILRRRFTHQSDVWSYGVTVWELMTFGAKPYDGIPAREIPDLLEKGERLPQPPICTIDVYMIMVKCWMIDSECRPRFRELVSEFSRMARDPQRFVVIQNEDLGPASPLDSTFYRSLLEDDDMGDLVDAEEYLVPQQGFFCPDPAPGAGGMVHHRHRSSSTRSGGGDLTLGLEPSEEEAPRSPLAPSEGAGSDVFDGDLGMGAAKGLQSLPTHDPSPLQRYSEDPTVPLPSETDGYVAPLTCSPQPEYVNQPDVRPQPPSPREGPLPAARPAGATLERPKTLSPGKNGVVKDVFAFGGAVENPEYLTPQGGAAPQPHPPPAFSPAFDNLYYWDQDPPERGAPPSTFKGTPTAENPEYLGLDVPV
Epidermal growth factor receptor, sequence (P00533 whole entry): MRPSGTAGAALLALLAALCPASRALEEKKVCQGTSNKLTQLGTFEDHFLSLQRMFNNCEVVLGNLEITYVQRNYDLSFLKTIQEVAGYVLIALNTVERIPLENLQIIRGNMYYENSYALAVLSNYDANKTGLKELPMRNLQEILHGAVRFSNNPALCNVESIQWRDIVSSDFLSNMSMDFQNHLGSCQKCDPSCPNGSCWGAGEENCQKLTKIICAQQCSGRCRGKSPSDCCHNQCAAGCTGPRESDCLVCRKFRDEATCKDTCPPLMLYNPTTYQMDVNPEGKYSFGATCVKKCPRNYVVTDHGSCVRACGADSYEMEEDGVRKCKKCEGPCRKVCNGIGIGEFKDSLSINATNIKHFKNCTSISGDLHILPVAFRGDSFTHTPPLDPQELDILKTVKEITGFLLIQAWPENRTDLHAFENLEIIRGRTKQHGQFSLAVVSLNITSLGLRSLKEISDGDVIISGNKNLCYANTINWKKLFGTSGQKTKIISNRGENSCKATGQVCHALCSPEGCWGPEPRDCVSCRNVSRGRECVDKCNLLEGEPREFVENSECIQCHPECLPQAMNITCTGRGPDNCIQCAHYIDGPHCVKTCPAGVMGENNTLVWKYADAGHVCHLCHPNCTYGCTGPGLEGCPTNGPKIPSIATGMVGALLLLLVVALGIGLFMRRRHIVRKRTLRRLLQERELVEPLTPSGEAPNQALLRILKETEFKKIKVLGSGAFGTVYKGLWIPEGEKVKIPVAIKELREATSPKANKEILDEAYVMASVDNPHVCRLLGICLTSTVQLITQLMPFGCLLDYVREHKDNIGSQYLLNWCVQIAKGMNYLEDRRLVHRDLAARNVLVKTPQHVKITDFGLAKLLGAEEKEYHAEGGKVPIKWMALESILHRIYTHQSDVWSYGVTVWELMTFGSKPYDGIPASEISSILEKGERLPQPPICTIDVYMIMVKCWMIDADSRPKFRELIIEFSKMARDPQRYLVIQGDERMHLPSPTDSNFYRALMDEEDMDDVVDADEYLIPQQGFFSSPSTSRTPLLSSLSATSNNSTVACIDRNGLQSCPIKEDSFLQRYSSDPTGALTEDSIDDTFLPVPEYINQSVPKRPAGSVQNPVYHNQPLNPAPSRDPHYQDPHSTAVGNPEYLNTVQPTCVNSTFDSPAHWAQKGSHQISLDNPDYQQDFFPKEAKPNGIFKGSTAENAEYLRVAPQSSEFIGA

Compound: O=S(=O)(CCO)c1cc2c(Nc3cccc(Br)c3)ncnc2cn1
IC50 [13]: 0.0935 µM

Compound: C=CC(=O)N(C)c1cc2c(Nc3cccc(Br)c3)ncnc2cn1
HDT (A-431 [14]): 200 mg/kg
T-C (A-431 [3]): 5.2 days
T/C (A-431 [4]): 62%
Weight change (A-431 [5]): -0.1 g
HDT (NCI-H125 [6]): 200 mg/kg
T-C (NCI-H125 [7]): 7.3 days
T/C (NCI-H125 [8]): 56%
Weight change (NCI-H125 [9]): -0.4 g
HDT (MCF7 [15]): 200 mg/kg
Weight change (MCF7 [16]): -0.3 g
T/C (MCF7 [17]): 88%
T-C (MCF7 [18]): 1.5 days

Compound: CN(C)CCCNC(=O)/C=C/C(=O)Nc1ccc2ncnc(Nc3cccc(Br)c3)c2c1
IC50 [1]: 0.207 µM

Now from value to molecule, other results behind:

IC50 [1]: 0.013 µM
Compound: CN(C)CCCNC(=O)/C=C/C(=O)Nc1cc2c(Nc3cccc(Br)c3)ncnc2cn1

IC50 [1]: 0.024 µM
Compound: O=C(/C=C/C(=O)Nc1cc2c(Nc3ccc(F)c(Cl)c3)ncnc2cn1)NCCCN1CCOCC1
HDT (A-431 [2]): 200 mg/kg
T-C (A-431 [3]): 5.2 days
T/C (A-431 [4]): 70%
Weight change (A-431 [5]): -0.1 g
HDT (NCI-H125 [6]): 200 mg/kg
T-C (NCI-H125 [7]): 7.9 days
T/C (NCI-H125 [8]): 23%
Weight change (NCI-H125 [9]): -0.3 g
HDT (MCF7 [10]): 200 mg/kg
T/C (MCF7 [11]): 124%
T-C (MCF7 [12]): 6.8 days

IC50 [1]: 0.0081 µM
Compound: O=C(/C=C/C(=O)Nc1cc2c(Nc3cccc(Br)c3)ncnc2cn1)NCCCn1ccnc1

IC50 [1]: 0.014 µM
Compound: CCN(CC)CCCNC(=O)/C=C/C(=O)Nc1cc2c(Nc3cccc(Br)c3)ncnc2cn1

IC50 [1]: 0.005 µM
Compound: O=C(/C=C/C(=O)Nc1cc2c(Nc3cccc(Br)c3)ncnc2cn1)NCCCN1CCOCC1
